Where two headings read alike, the source gives them in different places. Peptide text beside a SMILES is read from it. * marks the point of attachment. X1 = CCCO[C@H](C[C@H](C(C)C)N(CC(=O)NCCC(C)(C)SSCCC(=O)*)C(=O)[C@@H](NC(=O)[C@H]1CCCCN1C)[C@@H](C)CC)c1nc(C(=O)N[C@@H](Cc2ccccc2)C[C@H](C)C(=O)O)cs1; X2 = CCCO[C@H](C[C@H](C(C)C)N(CC(=O)NCCSSCCC(=O)*)C(=O)[C@@H](NC(=O)[C@H]1CCCCN1C)[C@@H](C)CC)c1nc(C(=O)N[C@@H](Cc2ccccc2)C[C@H](C)C(=O)O)cs1

In series [1] the test system is PC-3 (prostate cancer) cells. Type of series: cell-based, human. The note with it: 6 h. The procedure: (§1) [formula] Scheme 1 (A) Solid-phase synthesis of tubugi analogs functionalized with a thiol group at the internal amide N-substituent. WR = Wang resin. (B) Evaluation of the anti-proliferative activity: tubugi effects on cell viability, as determined by a resazurin assay for human prostate cancer PC-3 cells and human colon cancer HCT-116 cells treated for 48 h with tubugi 10a (red dots and line) and tubugi 10b (blue triangles and line). For control and data normalization, cells were routinely treated in parallel with 0.5% (v/v) DMSO (negative control), and as a positive cytotoxicity control with 100 µM digitonin (for data normalization set to 0% cell viability), both in standard growth medium.
(§2) The actual GRPR expression levels of these cell lines were checked by conducting RT-qPCR, as described in the SI. […] The cell viability and proliferation assays were carried out by using a resazurin-based fluorometric assay. The cells were exposed to the bombesin conjugates 20, 21, and 22 for initial 6 h and 48 h, and regardless of the initial incubation time, the cells were then allowed to grow until 72 h in sum were finalized, after which the cell viability was determined (see the SI).
FIGURE 2 (A) Relative human GRPR (mRNA) expression levels in the cell lines used for the flow cytometry and cell viability studies, as detected by using RT-qPCR (n = 3). Data were analyzed by conducting the ΔΔCt methodology using GAPDH as a reference gene and normalized to the GRPR expression level of non-cancerous MCF-10A breast cells as a “healthy” cell reference (set to 1.0). […] (B–D) Cell viability of human cancer (T-47D, PC-3, MDA-MB-231, and HCT-116) and non-cancer (MCF-10A) cell lines after 6 h initial treatment with the bombesin-tubugi conjugates 20 (normal disulfide), 21 (hindered disulfide), and 22 (hindered disulfide and lipidated), medium exchange and subsequent cell cultivation until finalization of 72 h, and subsequent measurement by using fluorometric resazurin assay read-out. […] Each data point was determined with 3-4 biological replicates, each with technical triplicates. […]

Series [2] relates to MCF-10A (non-cancer, healthy breast epithelium) cells. The experiment in a line: Resazurin cell viability assay, MCF-10A. Type of series: cell-based, human. The note with it: for fold higher IC50 in GRPR-lowest expressing healthy MCF-10A than in higher GRPR-expressing cancer cells: compared with T-47D (20) or T-47D and PC-3 (21); for IC50: MCF-10A. The method, then: as §2
(§3) FIGURE 2 (A) Relative human GRPR (mRNA) expression levels in the cell lines used for the flow cytometry and cell viability studies, as detected by using RT-qPCR (n = 3). Data were analyzed by conducting the ΔΔCt methodology using GAPDH as a reference gene and normalized to the GRPR expression level of non-cancerous MCF-10A breast cells as a “healthy” cell reference (set to 1.0). Statistical significance was tested by using an unpaired t-test (*p < 0.05). (B–D) Cell viability of human cancer (T-47D, PC-3, MDA-MB-231, and HCT-116) and non-cancer (MCF-10A) cell lines after 6 h initial treatment with the bombesin-tubugi conjugates 20 (normal disulfide), 21 (hindered disulfide), and 22 (hindered disulfide and lipidated), medium exchange and subsequent cell cultivation until finalization of 72 h, and subsequent measurement by using fluorometric resazurin assay read-out. For control and data normalization, cells were routinely treated in parallel with 0.5% (v/v) DMSO (negative control), and as a positive cytotoxicity control with 100 µM digitonin (for data normalization set to 0% cell viability), both in standard growth medium. Each data point was determined with 3-4 biological replicates, each with technical triplicates. The indicated concentrations are IC50 values as calculated based on the non-linear regression dose-response curves as drawn by using GraphPad Prism 8 software. Error bars indicate the 95% confidence interval. TEXT PRINTED IN THE PICTURE: (B) 20: T-47D (HR+ breast cancer) 594.2 nM (95% CI: 475.2 - n.d. nM); PC-3 (prostate cancer) 695.3 nM (95% CI: 595.6 - n.d. nM); MDA-MB-231 (TNBC) 626.8 nM (95% CI: 430.4 - n.d. nM); HCT-116 (colon cancer) 1,315 nM (95% CI: n.d. - 6,114 nM); MCF-10A (healthy breast) ~ 3,200 nM (95% CI: n.d.) | (C) 21: T-47D (HR+ breast cancer) 740.9 nM (95% CI: 598.2 - 950.1 nM); PC-3 (prostate cancer) 716.4 nM (95% CI: 529.4 - 997.2 nM); MDA-MB-231 (TNBC) 357.0 nM (95% CI: n.d. - 606.4 nM); HCT-116 (colon cancer) ~ 2,000 nM (95% CI: n.d.); MCF-10A (healthy breast) ~ 4,000 nM (95% CI: n.d.) | (D) 22: T-47D (HR+ breast cancer) 70.9 nM (95% CI: 39.3 - 122.4 nM); PC-3 (prostate cancer) 110.7 nM (95% CI: 66.4 - 116.8 nM); MDA-MB-231 (TNBC) 87.8 nM (95% CI: 83.3 - 148.4 nM)

Series [3] concerns MDA-MB-231 (TNBC) cells. Format: cell-based, human. The note with it: 6 h. The method, then: as §2
(§4) FIGURE 2 (A) Relative human GRPR (mRNA) expression levels in the cell lines used for the flow cytometry and cell viability studies, as detected by using RT-qPCR (n = 3). Data were analyzed by conducting the ΔΔCt methodology using GAPDH as a reference gene and normalized to the GRPR expression level of non-cancerous MCF-10A breast cells as a “healthy” cell reference (set to 1.0). Statistical significance was tested by using an unpaired t-test (*p < 0.05). (B–D) Cell viability of human cancer (T-47D, PC-3, MDA-MB-231, and HCT-116) and non-cancer (MCF-10A) cell lines after 6 h initial treatment with the bombesin-tubugi conjugates 20 (normal disulfide), 21 (hindered disulfide), and 22 (hindered disulfide and lipidated), medium exchange and subsequent cell cultivation until finalization of 72 h, and subsequent measurement by using fluorometric resazurin assay read-out. For control and data normalization, cells were routinely treated in parallel with 0.5% (v/v) DMSO (negative control), and as a positive cytotoxicity control with 100 µM digitonin (for data normalization set to 0% cell viability), both in standard growth medium. Each data point was determined with 3-4 biological replicates, each with technical triplicates. The indicated concentrations are IC50 values as calculated based on the non-linear regression dose-response curves as drawn by using GraphPad Prism 8 software. Error bars indicate the 95% confidence interval. TEXT PRINTED IN THE PICTURE: (B) 20: T-47D (HR+ breast cancer) 594.2 nM (95% CI: 475.2 - n.d. nM); PC-3 (prostate cancer) 695.3 nM (95% CI: 595.6 - n.d. nM); MDA-MB-231 (TNBC) 626.8 nM (95% CI: 430.4 - n.d. nM); HCT-116 (colon cancer) 1,315 nM (95% CI: n.d. - 6,114 nM); MCF-10A (healthy breast) ~ 3,200 nM (95% CI: n.d.) | (C) 21: T-47D (HR+ breast cancer) 740.9 nM (95% CI: 598.2 - 950.1 nM); PC-3 (prostate cancer) 716.4 nM (95% CI: 529.4 - 997.2 nM); MDA-MB-231 (TNBC) 357.0 nM (95% CI: n.d. - 606.4 nM); HCT-116 (colon cancer) ~ 2,000 nM (95% CI: n.d.); MCF-10A (healthy breast) ~ 4,000 nM (95% CI: n.d.) | (D) 22: T-47D (HR+ breast cancer) 70.9 nM (95% CI: 39.3 - 122.4 nM); PC-3 (prostate cancer) 110.7 nM (95% CI: 66.4 - 116.8 nM); MDA-MB-231 (TNBC) 87.8 nM (95% CI: 83.3 - 148.4 nM) […]
(§5) Figure S50. Cell viability of human cancer (T-47D, PC-3, MDA-MB-231) and non-cancer (184B5) cell lines after 6 h initial treatment with the bombesin-tubugi conjugate 22 and its non-conjugated tubugi payload 10b, medium exchange and subsequent cell cultivation until finalization of 72 h, and subsequent measurement by using fluorometric resazurin assay read-out. Each data point was determined in at least 3-4 biological replicates each with technical triplicates. The indicated concentrations are IC50 values as calculated based on the non-linear regression dose-response curves as drawn by using GraphPad Prism 8 software. Error bars indicate the 95% confidence interval.
(§6) (1 picture or pasted object on this page, not shown here)

Series [4] concerns HCT-116 (colon cancer) cells. The experiment in a line: Resazurin cell viability / anti-proliferation assay, HCT-116. The note with it: for fold higher IC50 in GRPR-lower expressing HCT-116 than in higher GRPR-expressing cancer cells: compared with T-47D (20) or T-47D and PC-3 (21); for IC50: HCT-116. Type of series: cell-based, human. The procedure:
as §1, §2, §3

Series [5] relates to T-47D (HR+ breast cancer) cells. Format: cell-based, human. The note with it: 6 h. The method, then: as §2, §4, §5, §6
For series [6], the system named is 184B5 (healthy breast) cells. The note with it: 6 h.
Series [7] in a line: Resazurin cell viability assay, the three GRPR-overexpressing cancer cell lines taken together. The note with it: 6 h initial treatment; read-out: selectivity: fold higher cytotoxicity for GRPR-overexpressing cells than for healthy 184B5 cells. Format: cell-based, human.
Series [8] deals with T-47D, PC-3 and MDA-MB-231 cells. The series is described as above. Format: cell-based, human. The note with it: 6 h initial treatment.
Setting [9] is: 6 h initial treatment, read-out: IC50.
[10] abbreviates: 6 h initial treatment, medium exchange, cultivation until 72 h, fluorometric resazurin read-out, 3-4 biological replicates, technical triplicates, read-out: IC50.

Turning to `CCCO[C@H](C[C@H](C(C)C)N(CC(=O)NCCSSCCC(=O)NCCCC[C@H](N)C(=O)N[C@@H](CC(N)=O)C(=O)N[C@@H](CCC(N)=O)C(=O)N[C@@H](Cc1c[nH]c2ccccc12)C(=O)N[C@@H](C)C(=O)N[C@H](C(=O)NCC(=O)N[C@@H](Cc1c[nH]cn1)C(=O)N[C@@H](CC(C)C)C(=O)N[C@@H](CCSC)C(N)=O)C(C)C)C(=O)[C@@H](NC(=O)[C@H]1CCCCN1C)[C@@H](C)CC)c1nc(C(=O)N[C@@H](Cc2ccccc2)C[C@H](C)C(=O)O)cs1` [compound 20] (H-K(X2)NQWAVGHLM-NH2), the IC50 was 695 nM in series [1]; approximately 3200 nM in series [2] (setting [9]); “nanomolar range” in series [2] (48 h initial treatment); 627 nM in series [3]; 1320 nM in series [4] (setting [10]); approximately 1300 nM in series [4] (setting [9]). For the same molecule, the IC50 result in series [4] (48 h initial treatment) is reported as “nanomolar range”. Also, the “fold higher IC50 in GRPR-lowest expressing healthy MCF-10A than in higher GRPR-expressing cancer cells” value in series [2] (6 h initial treatment) was approximately 5.5 fold. The “fold higher IC50 in GRPR-lower expressing HCT-116 than in higher GRPR-expressing cancer cells” value in series [4] (6 h initial treatment) is recorded as “approximately 2 fold”.
On to `CCCO[C@H](C[C@H](C(C)C)N(CC(=O)NCCC(C)(C)SSCCC(=O)NCCCC[C@H](N)C(=O)N[C@@H](CC(N)=O)C(=O)N[C@@H](CCC(N)=O)C(=O)N[C@@H](Cc1c[nH]c2ccccc12)C(=O)N[C@@H](C)C(=O)N[C@H](C(=O)NCC(=O)N[C@@H](Cc1c[nH]cn1)C(=O)N[C@@H](CC(C)C)C(=O)N[C@@H](CCSC)C(N)=O)C(C)C)C(=O)[C@@H](NC(=O)[C@H]1CCCCN1C)[C@@H](C)CC)c1nc(C(=O)N[C@@H](Cc2ccccc2)C[C@H](C)C(=O)O)cs1` [compound 21] (H-K(X1)NQWAVGHLM-NH2), for which the concentration for half-maximal inhibition (IC50) in series [1] was 716 nM; in series [2] (setting [10]) it was approximately 4000 nM; in series [2] (48 h initial treatment), “nanomolar range”; in series [5], 741 nM; in series [3], 357 nM; in series [4] (setting [10]), approximately 2000 nM. Further, the concentration for half-maximal inhibition (IC50) result in series [4] (48 h initial treatment) is on record as “nanomolar range”. The “fold higher IC50 in GRPR-lowest expressing healthy MCF-10A than in higher GRPR-expressing cancer cells” value in series [2] (6 h initial treatment) is given as approximately 5.5 fold. The “fold higher IC50 in GRPR-lower expressing HCT-116 than in higher GRPR-expressing cancer cells” value in series [4] (6 h initial treatment) is on record as “approximately 2.5 fold”.
Take `CCCCCCCCCCCCCCNC(=O)CN(CCCC[C@H](N)C(=O)N[C@@H](CC(N)=O)C(=O)N[C@@H](CCC(N)=O)C(=O)N[C@@H](Cc1c[nH]c2ccccc12)C(=O)N[C@@H](C)C(=O)N[C@H](C(=O)NCC(=O)N[C@@H](Cc1c[nH]cn1)C(=O)N[C@@H](CC(C)C)C(=O)N[C@@H](CCSC)C(N)=O)C(C)C)C(=O)CCSSC(C)(C)CCNC(=O)CN(C(=O)[C@@H](NC(=O)[C@H]1CCCCN1C)[C@@H](C)CC)[C@H](C[C@@H](OCCC)c1nc(C(=O)N[C@@H](Cc2ccccc2)C[C@H](C)C(=O)O)cs1)C(C)C` [compound 22]: the 50% inhibitory concentration (IC50) was 111 nM in series [1]; 392 nM in series [6]; 70.9 nM in series [5]; 87.8 nM in series [3]; 70 to 110 nM in series [8] (T-47D, PC-3, MDA-MB-231, read-out: IC50 (range over cell lines)). In addition, the selectivity ratio in series [7] fell in the range of 3.5 to 5.5. In addition, the “fold more potent than the non-lipidated conjugates 20 and 21” value in series [8] (three cancer cells overexpressing the GRPR) was 4- to 10 fold.

Broadly, the IC50 is the concentration at which inhibition is half-maximal.

The values are drawn from publication PMC11589458, “Development of bombesin-tubulysin conjugates using multicomponent chemistry to functionalize both the payload and the homing peptide” (Frontiers in Pharmacology, 2024).
